US20080153840A1, “REDUCTION OF CARDIOVASCULAR SYMPTOMS” (priority 2006, published 2008)
Where a name gives a salt, the structure may show the parent alone. Read-outs that look alike come from different tables or passages of the source.

Experiments:
[1] = tested on: anesthetized rabbits; test: clofilium-induced Torsades de Pointes in methoxamine-treated anesthetized rabbits; format: in vivo, rabbit
Method: Spontaneous TdP was induced with methoxamine (α1-adrenoceptor agonist) followed by clofilium (Ikr blocker) in anesthetized rabbits as previously described by Carlsson et al (J. Cardiovas. Pharmacol 1990; 16:276-285). RAN was given via intravenous (iv) infusion 10 min prior to clofilium. Arterial pressure (BP), lead II ECG and endocardial Monophasic Action Potential (MAP) were recorded. QT interval was corrected for heart rate by using a formula developed for rabbits: QTc=QT−0.175*(RR−300).

[2] = tested on: female rabbit hearts; test: female rabbit isolated hearts paced at 1 Hz: monophasic action potentials and 12-lead ECG
[3] = tested on: rabbit and guinea-pig isolated hearts and canine ventricular myocytes; conditions: cited from earlier work
[4] = tested on: inward rectifier K+ current (IKI); conditions: cited from earlier work
[5] = cited from earlier work
[6] = tested on: IKr; conditions: cited from earlier work
[7] = tested on: slow component of the delayed rectifier K+ current; conditions: at 30 μM; cited from earlier work
[8] = tested on: transient outward K+ current (Ito); conditions: cited from earlier work
[9] = molecular target: HERG channels expressed in HEK293 cells (Homo sapiens, UniProt Q12809); conditions: for time constant for development of block of IHERG: human
Source text: Human-ether-a-go-go related gene (HERG) encodes the cardiac rapidly activating delayed rectifier K^+ current (IKr). Inhibition of HERG K^+ current (IHERG) is a mechanism for drug-induced long QT syndrome.

[10] = ranolazine 10 μM in the presence of 60 nM E-4031, n=9, p<0.01
[11] = iv infusion 10 min prior to clofilium, n=6

Chain of HERG channels expressed in HEK293 cells (Q12809 whole entry): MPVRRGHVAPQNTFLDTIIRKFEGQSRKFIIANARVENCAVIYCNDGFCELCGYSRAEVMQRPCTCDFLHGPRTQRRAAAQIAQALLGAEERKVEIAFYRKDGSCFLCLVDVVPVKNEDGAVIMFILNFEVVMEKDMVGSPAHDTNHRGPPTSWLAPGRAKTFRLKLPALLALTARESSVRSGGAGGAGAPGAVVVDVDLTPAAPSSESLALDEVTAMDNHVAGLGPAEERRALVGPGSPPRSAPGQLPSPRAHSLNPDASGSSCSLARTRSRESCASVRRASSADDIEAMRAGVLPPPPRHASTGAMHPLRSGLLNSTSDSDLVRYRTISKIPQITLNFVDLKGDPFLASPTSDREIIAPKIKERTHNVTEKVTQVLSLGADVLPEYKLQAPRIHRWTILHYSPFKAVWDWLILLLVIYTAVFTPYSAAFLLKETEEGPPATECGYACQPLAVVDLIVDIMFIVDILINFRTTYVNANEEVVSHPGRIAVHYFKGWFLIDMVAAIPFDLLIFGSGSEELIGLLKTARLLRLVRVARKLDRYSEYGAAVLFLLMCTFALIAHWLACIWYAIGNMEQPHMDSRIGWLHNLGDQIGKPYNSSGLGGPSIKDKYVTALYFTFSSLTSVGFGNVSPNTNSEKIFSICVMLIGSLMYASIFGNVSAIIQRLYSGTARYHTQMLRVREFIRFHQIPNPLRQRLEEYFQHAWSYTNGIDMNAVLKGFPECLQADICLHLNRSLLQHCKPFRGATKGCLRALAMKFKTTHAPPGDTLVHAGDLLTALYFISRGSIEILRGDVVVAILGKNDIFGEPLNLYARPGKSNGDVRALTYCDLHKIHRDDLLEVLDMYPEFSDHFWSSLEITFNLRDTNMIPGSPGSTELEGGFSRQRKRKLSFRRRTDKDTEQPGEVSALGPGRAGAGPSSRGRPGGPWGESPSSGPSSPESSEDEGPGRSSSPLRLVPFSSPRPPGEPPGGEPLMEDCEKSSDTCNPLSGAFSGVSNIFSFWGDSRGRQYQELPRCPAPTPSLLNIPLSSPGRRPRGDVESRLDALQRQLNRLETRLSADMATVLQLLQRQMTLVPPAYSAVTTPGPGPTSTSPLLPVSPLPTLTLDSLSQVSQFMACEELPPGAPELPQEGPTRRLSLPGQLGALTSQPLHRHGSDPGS

## CCCCCCC[N+](CC)(CC)CCCCc1ccc(Cl)cc1.[Br-] [Clofilium, 4-chloro-N,N-diethyl-N-heptyl benzenebutanaminium bromide]
[1]; clofilium after methoxamine, rabbits with TdP/rabbits
  rabbits with TdP: 6/6
[1]; from 123±6 ms, n=6, P<0.05
  MAPD90 after clofilium: 201 ± 21 ms
[1]; from 130±4 ms, n=6, P<0.05
  QTc after clofilium: 200 ± 18 ms

## Cc1cccc(CCN2CCC(C(=O)c3ccc(NS(C)(=O)=O)cc3)CC2)n1 [E-4031, N-(4-[(1-[2-(6-methyl-2-pyridyl)ethyl]-4-piperidylcarbonyl]phenyl)methanesulfonamidedihydrochloride dehydrate]
[2]
  epicardial MAPD90 with drug: 254 ± 6 ms
  increase of transmural MAPD dispersion: 74 ± 7 ms
  prolongation of duration of epicardial MAP (MAPD90): 75 ± 5 ms
  transmural MAPD dispersion with drug: 90 ± 10 ms

## NC1=N[C@H](O)[C@H]2[C@H]3O[C@]4(O)O[C@@H]([C@@H](O)[C@@]2(N1)[C@@H]4O)[C@]3(O)CO [TTX, Tetrodotoxin]
[2]
  changes in the QRS interval: no or minimal changes
  decrease of transmural dispersion: 47 ± 11 ms
  effect on MAPD90: no effects
  effect on transmural dispersion of MAPD90: no effects
  shortening of MAPD: 33 ± 8 ms

## COc1ccccc1OCC(O)CN1CCN(CC(=O)Nc2c(C)cccc2C)CC1 (stereo not shown) [ranolazine, N-(2,6-dimethylphenyl)-4-[2-hydroxy-3-(2-methoxyphenoxy)propyl]-1-piperazineacetamide]
[3]; at therapeutic concentrations
  increase in monophasic APD (MAPD) or QT interval: 2 to 6 ms
[3]
  pro-arrhythmic activity: not associated with pro-arrhythmic activity
[2]
  changes in the QRS interval: no or minimal changes
[2]; ranolazine 10 μM
  effect on spontaneous and pause-triggered episodes of TdP induced by 60 nM E-4031: abolished
[2]; [10]
  decrease of transmural dispersion: 40 ± 9 ms
  shortening of MAPD90: 19 ± 5 ms
[2]; ranolazine 5-30 μM alone
  effect on transmural dispersion of MAPD90: without increasing
[2]; ranolazine 5-30 μM alone, concentration-dependent, n=7, p<0.01
  prolongation of epicardial MAPD90: 32±4%
[1]; RAN at 25 μM, P<0.005 vs vehicle control
  occurrence of TdP: 0/6
[1]; RAN at 25 μM, from 32±1 ms, n=5, P>0.05
  QRS interval: 33 ± 1 ms
[1]; RAN at 25 μM, from 79±2 ms, n=5, P>0.05
  PR interval: 77 ± 1 ms
[1]; RAN at 25 μM, from 186±9 bpm, n=5, P>0.05
  heart rate: 204±10 bpm
[1]; [11]
  ED50 for suppression of clofilium-induced MAPD90 prolongation: 15 µM
  ED50 for suppression of clofilium-induced QTc prolongation: 10 µM
  ED50 for suppression of clofilium-induced TdP: 10 µM
[4]
  effect on IKI: no effect
[5]; in the absence of ATX-II
  effect on MAPD90: increased
[5]; in the presence of 2 nM ATX-II
  effect on MAPD: shortened
[6]
  effect on IKr: inhibit
[7]
  inhibition of the slow component of the delayed rectifier K+ current (IKr): ~17%
[8]
  effect on Ito: no effect
[9]
  character of block of IHERG: reversible and voltage-dependent, but frequency-independent
[9]; 10 μM
  time constant for development of block of IHERG: 76.6 ± 1.6 ms
[9]; 30 μM
  time constant for development of block of IHERG: 35.8 ± 2.4 ms
[9]; 100 μM
  time constant for development of block of IHERG: 19.4 ± 1.7 ms
